{"source": "patent US10131672B2", "about": "“Therapeutic or prophylactic agent for biliary diseases” (Toray Industries, Inc., priority 2010, dated 2018)", "key": {"sphincter of Oddi [1]": {"test_system": "sphincter of Oddi", "experiment": "Rabbit model for contraction of sphincter of Oddi (perfusion pressure in sphincter of Oddi)", "type": "in vivo", "method": "The method described in Wei J G et al., World J. Gastroenterol., 6, 102 (2000) was partially modified and used for measurement of a change in the perfusion pressure in sphincter of Oddi. The change in the perfusion pressure reflects the motility of a contractive change of sphincter of Oddi.\nMale NZW rabbits (Japan SLC) which had body weights of 2.0 to 2.5 kg upon delivery were fasted from the evening of the day before the experiment. The experiment was carried out under anesthesia with pentobarbital, with artificial ventilation. Each rabbit was immobilized in the supine position and subjected to abdominal incision to expose the periduodenal area and the common bile duct. A small incision was made in the common bile duct, and a cannula was inserted into the common bile duct toward the duodenum side, followed by indwelling its tip in sphincter of Oddi (sphincter ampullae). For biliary excretion, another cannula was inserted into the bile duct toward the gallbladder side and immobilized. From the other end of the cannula whose tip was indwelled in the sphincter of Oddi, physiological saline was continuously injected at a flow rate of 6 mL/hour to allow perfusion in the sphincter of Oddi. By recording the perfusion pressure with a blood pressure monitoring transducer (DX-300, Nihon Kohden Corporation), the contraction reaction of sphincter of Oddi was measured.\nTo the rabbit, 5% aqueous mannitol solution, which is the vehicle for the Compound 1 solution, was administered via the jugular vein. Further, not less than 30 minutes after the administration of the vehicle, Compound 1 was administered to the same individual at a dose of 0.2 μg/kg via the jugular vein. The administration volume of the vehicle and Compound 1 was 1 mL/kg, and the administration was carried out for 60 seconds.\nThus, in the Compound 1-administered group, the rate of change in the maximum perfusion pressure was lower compared to the vehicle-administered group, and this difference was significant (*p<0.05, paired t-test)."}, "sphincter of Oddi [2]": {"test_system": "sphincter of Oddi", "experiment": "Sphincter of Oddi perfusion pressure after intravenous administration to a dog (literature)", "type": "in vivo", "method": "Further, gabexate mesilate reduces the sphincter of Oddi perfusion pressure by 6.9 mmH2O (corresponds to 0.51 mmHg) or 10.6 mmH2O (corresponds to 0.78 mmHg) when it is intravenously administered to a dog at a dose of 1 mg/kg or 3 mg/kg, respectively (Yamasato T. et al., J Smooth Muscle Res., 27, 87 (1991). Since oxapium iodide is usually orally administered at a dose of 30 to 60 mg per adult per day dividedly in 3 times, and 100 mg of gabexate mesilate is usually dissolved in 500 mL of Ringer's solution and the resulting solution is administered by intravenous drip infusion at a rate of not more than 8 mL/minute, the above-described doses are considered to be equivalent to the clinical doses of those drugs."}, "sphincter of Oddi [3]": {"test_system": "sphincter of Oddi", "conditions": "dog, intravenous, cited from earlier work"}, "biliary tract": {"test_system": "biliary tract", "conditions": "nalbuphine not statistically significant; butorphanol statistically significant; cited from earlier work"}, "sphincter of Oddi [4]": {"test_system": "sphincter of Oddi", "conditions": "animal experiments, high doses; cited from earlier work"}, "sphincter of Oddi [5]": {"test_system": "sphincter of Oddi", "conditions": "literature reports; cited from earlier work"}}, "note": "Read-outs that look alike come from different tables or passages of the source.", "data": [{"compound": "CN(C(=O)/C=C/c1ccoc1)[C@@H]1CC[C@@]2(O)[C@H]3Cc4ccc(O)c5c4[C@@]2(CCN3CC2CC2)[C@H]1O5.Cl", "note": "[Compound 1, (−)-17-(cyclopropylmethyl)-3,14β-dihydroxy-4,5α-epoxy-6β-[N-methyl-trans-3-(3-furyl)acrylamido]morphinan hydrochloride]", "values": [{"measurement": "reduction of the actual value of the maximum perfusion pressure", "setting": "sphincter of Oddi [1]; 0.2 μg/kg intravenous to rabbits, on average", "value": 0.95, "unit": "mmHg"}, {"measurement": "action on contraction of sphincter of Oddi (conclusion in words)", "setting": "sphincter of Oddi [1]; 0.2 μg/kg intravenous, rabbit", "value": "has an action to inhibit contraction of sphincter of Oddi"}, {"measurement": "rate of change in the maximum perfusion pressure (Oddi muscle contraction (Delta %))", "setting": "sphincter of Oddi [1]; 0.2 μg/kg intravenous, 3 minutes after vs 3 minutes before beginning of administration, mean, N=11, vehicle 99.81%, p<0.05", "value": 93.32, "unit": "%"}]}, {"compound": "C[N+]1(CC2COC(c3ccccc3)(C3CCCCC3)O2)CCCCC1", "note": "(stereo not drawn) [Oxapium iodide]", "values": [{"measurement": "reduction of the sphincter of Oddi perfusion pressure (converted)", "setting": "sphincter of Oddi [2]; 0.3 mg/kg", "value": 0.74, "unit": "mmHg"}, {"measurement": "reduction of the sphincter of Oddi perfusion pressure", "setting": "sphincter of Oddi [3]; 0.3 mg/kg (Tamasawa Y. et al. 1972)", "value": "about 10 mmH2O"}]}, {"compound": "Oc1ccc2c(c1)[C@@]13CCCC[C@@]1(O)[C@@H](C2)N(CC1CCC1)CC3", "note": "[butorphanol]", "values": [{"measurement": "increase of the inner pressure of biliary tract", "setting": "biliary tract", "value": 12, "unit": "%"}]}, {"compound": "CN1CC[C@]2(C)C[C@@H](Cc3ccc(O)cc32)C1", "note": "[eptazocine]", "values": [{"measurement": "contraction of sphincter of Oddi", "setting": "sphincter of Oddi [4]", "value": "shows an action to cause contraction of sphincter of Oddi"}]}, {"compound": "CCOC(=O)c1ccc(OC(=O)CCCCCNC(=N)N)cc1", "note": "[gabexate mesilate]", "values": [{"measurement": "reduction of the sphincter of Oddi perfusion pressure (converted)", "setting": "sphincter of Oddi [2]; 1 mg/kg", "value": 0.51, "unit": "mmHg"}, {"measurement": "reduction of the sphincter of Oddi perfusion pressure (converted)", "setting": "sphincter of Oddi [2]; 3 mg/kg", "value": 0.78, "unit": "mmHg"}, {"measurement": "reduction of the sphincter of Oddi perfusion pressure", "setting": "sphincter of Oddi [3]; 1 mg/kg (Yamasato T. et al. 1991)", "value": 6.9, "unit": "mmH2O"}, {"measurement": "reduction of the sphincter of Oddi perfusion pressure", "setting": "sphincter of Oddi [3]; 3 mg/kg (Yamasato T. et al. 1991)", "value": 10.6, "unit": "mmH2O"}]}, {"compound": "Oc1ccc2c3c1O[C@H]1[C@@H](O)CC[C@@]4(O)[C@@H](C2)N(CC2CCC2)CC[C@]314", "note": "[nalbuphine]", "values": [{"measurement": "action on contraction of sphincter of Oddi", "setting": "sphincter of Oddi [5]", "value": "does not exert any action on contraction of sphincter of Oddi"}]}, {"compound": "C=CCN1CC[C@]23c4c5ccc(O)c4O[C@H]2C(=O)CC[C@@]3(O)[C@H]1C5", "note": "[naloxone]", "values": [{"measurement": "action on contraction of sphincter of Oddi", "setting": "sphincter of Oddi [5]", "value": "have an action to inhibit contraction of sphincter of Oddi"}]}, {"compound": "COc1cccc(C2(O)CCCCC2CN(C)C)c1", "note": "(stereo not drawn) [tramadol]", "values": [{"measurement": "contraction of sphincter of Oddi", "setting": "sphincter of Oddi [4]", "value": "causes contraction of sphincter of Oddi"}]}, {"compound": "methionine enkephalin", "values": [{"measurement": "action on contraction of sphincter of Oddi", "setting": "sphincter of Oddi [5]", "value": "cause transient contraction of sphincter of Oddi, followed by showing a continuous contraction inhibition action"}]}]}
